The assay has as its system RBC membrane. Description: In-vitro anti-inflammatory activity, RBC membrane protection. As to conditions: concentration of 5 mg/mL. Format: cell-based.

The structures appear in SMILES notation.

Compound `O=C(O)Cc1ccccc1Nc1c(Cl)cccc1Cl` [diclofenac sodium] came in with an RBC membrane protection of 76%.

`C[C@]12C=CC(=O)C=C1CC[C@@H]1[C@@H]2[C@@H](O)C[C@@]2(C)[C@H]1CC[C@]2(O)C(=O)CO` [prednisolone]: the RBC membrane protection came out at 73%.

The record behind these values is patent publication US20240108674A1, “BERBERIS EXTRACT NANO-FORMULATION AND PROCESS OF PREPARATION THEREOF” (priority 2021, published 2024).
